Tests used:
IKZF2 = experiment: Cellular degradation assay, eGFP-IKZF2Δ fusion with mCherry reporter in Flp-In 293 cells; type: cell-based; conditions: 5 h incubation, n=1
How it was run: (§1)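 Flp-In 293 cells stably expressing eGFP-tagged degron fusions with P2A-mCherry reporter were treated with compound titrations (0.5% DMSO) for 5 hours. Imaging quantified GFP-positive/mCherry-positive cell fraction per well; DC50 at 5 h from nonlinear variable-slope fit.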

CRBN and Helios (IKZF2) = target: T1, CRBN and Helios (IKZF2) (Homo sapiens, UniProt Q96SW2+Q9UKS7); experiment: TR-FRET dimerization assay (CRBN-IKZF2 ternary complex formation); type: binding; conditions: n=1
T1 construct: His (N); Strep (N)
T1 sequence (Q96SW2 whole entry): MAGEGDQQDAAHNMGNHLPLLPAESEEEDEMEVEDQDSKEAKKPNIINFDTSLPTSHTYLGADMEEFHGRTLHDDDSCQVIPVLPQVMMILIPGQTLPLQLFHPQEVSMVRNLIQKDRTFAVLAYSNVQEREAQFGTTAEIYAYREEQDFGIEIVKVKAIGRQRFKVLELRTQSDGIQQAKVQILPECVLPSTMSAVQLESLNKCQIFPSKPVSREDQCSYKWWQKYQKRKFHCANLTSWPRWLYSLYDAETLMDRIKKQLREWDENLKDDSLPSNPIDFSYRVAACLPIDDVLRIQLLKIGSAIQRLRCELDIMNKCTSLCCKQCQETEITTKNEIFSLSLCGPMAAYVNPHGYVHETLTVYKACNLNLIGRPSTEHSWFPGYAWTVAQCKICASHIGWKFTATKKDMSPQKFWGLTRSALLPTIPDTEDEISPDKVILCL
T1 sequence (Q9UKS7 whole entry): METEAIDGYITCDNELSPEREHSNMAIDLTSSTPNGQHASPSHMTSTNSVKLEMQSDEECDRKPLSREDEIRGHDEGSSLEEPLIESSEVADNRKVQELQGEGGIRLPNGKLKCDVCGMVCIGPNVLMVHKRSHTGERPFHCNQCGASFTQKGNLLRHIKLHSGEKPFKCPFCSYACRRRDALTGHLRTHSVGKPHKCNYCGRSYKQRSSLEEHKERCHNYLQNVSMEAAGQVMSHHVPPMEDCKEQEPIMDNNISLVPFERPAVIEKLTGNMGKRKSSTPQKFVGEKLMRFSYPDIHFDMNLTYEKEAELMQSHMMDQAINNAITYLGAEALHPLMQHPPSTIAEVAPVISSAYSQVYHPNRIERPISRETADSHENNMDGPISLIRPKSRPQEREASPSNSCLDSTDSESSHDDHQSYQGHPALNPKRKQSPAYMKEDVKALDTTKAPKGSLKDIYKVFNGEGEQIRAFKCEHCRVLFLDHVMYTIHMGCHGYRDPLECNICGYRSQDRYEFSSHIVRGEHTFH
How it was run: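 BODIPY-labeled DDB1ΔB-CRBN and in vitro biotinylated IKZF2 were treated with increasing compound concentrations plus tracer Terbium-Streptavidin and incubated 15 min at rt. Recruitment was quantified as the 520/490 nm TR-FRET ratio; values are single measurements (n=1), each averaged from at least three technical replicates.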

SALL4 ZNF1-2 = target: T2, SALL4 ZNF1-2 (Homo sapiens, UniProt Q96SW2+Q9UJQ4); experiment: Cellular degradation assay, eGFP-SALL4 ZnF1-2 fusion with mCherry reporter in Flp-In 293 cells; type: cell-based; conditions: 5 h incubation, n=1
T2 construct: IKZF1Δ, IKZF2Δ, GSPT1 and SALL4 ZnF1-2 were subcloned; expressed in transfected cells; host or cells: Flp-In 293
T2 sequence (Q9UJQ4 378-438 limits assumed): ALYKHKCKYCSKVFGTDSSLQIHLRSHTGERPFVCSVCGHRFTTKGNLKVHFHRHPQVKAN
T2 sequence (Q96SW2 whole entry, the tested form may be a part): as the sequence (Q96SW2 whole entry) above
T2 sequence (Q16531 whole entry partner, the tested form may be a part): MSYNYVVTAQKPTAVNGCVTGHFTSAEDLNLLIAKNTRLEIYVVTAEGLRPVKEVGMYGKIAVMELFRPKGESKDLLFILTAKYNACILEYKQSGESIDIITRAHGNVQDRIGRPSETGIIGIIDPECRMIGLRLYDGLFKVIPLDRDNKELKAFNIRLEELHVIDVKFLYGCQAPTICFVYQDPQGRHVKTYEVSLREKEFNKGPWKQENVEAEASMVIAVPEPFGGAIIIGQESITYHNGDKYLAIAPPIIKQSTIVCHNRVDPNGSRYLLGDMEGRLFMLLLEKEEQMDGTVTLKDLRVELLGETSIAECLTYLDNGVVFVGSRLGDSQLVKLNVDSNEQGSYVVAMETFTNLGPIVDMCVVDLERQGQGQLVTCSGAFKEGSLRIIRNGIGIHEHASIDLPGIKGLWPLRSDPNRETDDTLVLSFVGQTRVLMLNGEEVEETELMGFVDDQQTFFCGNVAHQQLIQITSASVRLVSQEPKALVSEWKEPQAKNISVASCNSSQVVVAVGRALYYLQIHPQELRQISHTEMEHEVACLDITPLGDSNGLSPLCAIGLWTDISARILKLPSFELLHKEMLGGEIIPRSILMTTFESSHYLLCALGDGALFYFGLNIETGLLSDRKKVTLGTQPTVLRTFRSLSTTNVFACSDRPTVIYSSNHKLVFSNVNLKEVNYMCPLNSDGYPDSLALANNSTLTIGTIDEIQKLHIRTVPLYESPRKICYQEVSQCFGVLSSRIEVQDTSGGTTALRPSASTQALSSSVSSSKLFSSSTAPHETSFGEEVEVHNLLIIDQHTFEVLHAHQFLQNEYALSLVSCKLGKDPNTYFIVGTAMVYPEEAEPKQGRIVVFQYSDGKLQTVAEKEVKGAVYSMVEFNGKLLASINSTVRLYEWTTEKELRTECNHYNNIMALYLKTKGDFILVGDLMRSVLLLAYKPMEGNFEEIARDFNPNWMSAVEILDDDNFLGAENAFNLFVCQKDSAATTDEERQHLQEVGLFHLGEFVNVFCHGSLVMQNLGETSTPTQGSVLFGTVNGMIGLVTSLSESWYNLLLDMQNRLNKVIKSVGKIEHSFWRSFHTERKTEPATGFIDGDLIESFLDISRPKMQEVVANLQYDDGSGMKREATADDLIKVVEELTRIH
How it was run: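 Flp-In 293 cells stably expressing eGFP-SALL4 ZnF1-2 fusion plus mCherry reporter were treated with compound titrations (0.5% DMSO) for 5 hours. Imaging at 488/561 nm gave, per well, the fraction of GFP-positive among mCherry-positive cells.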

IKZF1 = target: T3, IKZF1 (Homo sapiens, UniProt Q13422); experiment: Cellular degradation assay, eGFP-IKZF1Δ fusion with mCherry reporter in Flp-In 293 cells; type: cell-based; conditions: 5 h incubation, n=1
T3 construct: expressed in transfected cells; host or cells: Flp-In 293
T3 sequence (Q13422 83-213 isoform Q13422-7 limits assumed): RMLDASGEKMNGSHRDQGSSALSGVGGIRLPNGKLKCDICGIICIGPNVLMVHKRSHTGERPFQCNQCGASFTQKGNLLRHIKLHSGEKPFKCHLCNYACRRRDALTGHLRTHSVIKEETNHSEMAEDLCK
T3 sequence (Q96SW2 whole entry partner, the tested form may be a part): as the sequence (Q96SW2 whole entry) above
T3 sequence (Q16531 2-1140 partner limits assumed): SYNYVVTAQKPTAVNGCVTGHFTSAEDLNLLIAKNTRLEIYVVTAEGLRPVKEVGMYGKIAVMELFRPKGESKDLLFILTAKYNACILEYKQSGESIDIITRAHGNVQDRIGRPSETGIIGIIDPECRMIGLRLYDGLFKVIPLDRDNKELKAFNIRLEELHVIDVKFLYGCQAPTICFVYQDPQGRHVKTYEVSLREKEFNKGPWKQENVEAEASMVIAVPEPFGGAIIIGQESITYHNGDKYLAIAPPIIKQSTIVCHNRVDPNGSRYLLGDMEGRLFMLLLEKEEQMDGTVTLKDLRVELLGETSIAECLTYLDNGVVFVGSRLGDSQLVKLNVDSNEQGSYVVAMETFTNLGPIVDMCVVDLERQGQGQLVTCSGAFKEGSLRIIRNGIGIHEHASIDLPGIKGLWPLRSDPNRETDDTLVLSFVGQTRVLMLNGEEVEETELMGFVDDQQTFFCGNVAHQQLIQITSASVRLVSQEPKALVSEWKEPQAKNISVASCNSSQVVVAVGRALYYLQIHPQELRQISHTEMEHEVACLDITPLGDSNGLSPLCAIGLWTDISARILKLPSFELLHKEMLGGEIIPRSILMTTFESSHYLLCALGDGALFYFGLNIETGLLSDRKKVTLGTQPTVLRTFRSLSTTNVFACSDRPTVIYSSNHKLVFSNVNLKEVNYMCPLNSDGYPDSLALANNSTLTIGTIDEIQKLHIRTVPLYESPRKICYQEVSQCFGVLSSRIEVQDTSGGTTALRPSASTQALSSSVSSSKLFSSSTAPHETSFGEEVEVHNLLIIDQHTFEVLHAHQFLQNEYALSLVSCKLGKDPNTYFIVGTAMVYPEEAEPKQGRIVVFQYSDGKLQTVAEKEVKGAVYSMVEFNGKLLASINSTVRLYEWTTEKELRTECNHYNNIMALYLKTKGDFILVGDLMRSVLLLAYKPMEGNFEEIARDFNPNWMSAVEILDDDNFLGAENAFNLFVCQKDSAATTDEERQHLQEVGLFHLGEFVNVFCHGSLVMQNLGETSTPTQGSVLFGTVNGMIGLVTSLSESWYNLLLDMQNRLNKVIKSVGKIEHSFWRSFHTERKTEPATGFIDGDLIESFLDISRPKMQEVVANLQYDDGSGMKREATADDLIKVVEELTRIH
How it was run: as §1

GSPT1 = GSPT1 (Homo sapiens, UniProt P15170+Q96SW2); experiment: Cellular degradation assay, eGFP-GSPT1 fusion with mCherry reporter in Flp-In 293 cells; type: cell-based; set-up: expressed in transfected cells; host or cells: Flp-In 293; conditions: 5 h incubation, n=1
Sequence of GSPT1 (P15170 whole entry, the tested form may be a part): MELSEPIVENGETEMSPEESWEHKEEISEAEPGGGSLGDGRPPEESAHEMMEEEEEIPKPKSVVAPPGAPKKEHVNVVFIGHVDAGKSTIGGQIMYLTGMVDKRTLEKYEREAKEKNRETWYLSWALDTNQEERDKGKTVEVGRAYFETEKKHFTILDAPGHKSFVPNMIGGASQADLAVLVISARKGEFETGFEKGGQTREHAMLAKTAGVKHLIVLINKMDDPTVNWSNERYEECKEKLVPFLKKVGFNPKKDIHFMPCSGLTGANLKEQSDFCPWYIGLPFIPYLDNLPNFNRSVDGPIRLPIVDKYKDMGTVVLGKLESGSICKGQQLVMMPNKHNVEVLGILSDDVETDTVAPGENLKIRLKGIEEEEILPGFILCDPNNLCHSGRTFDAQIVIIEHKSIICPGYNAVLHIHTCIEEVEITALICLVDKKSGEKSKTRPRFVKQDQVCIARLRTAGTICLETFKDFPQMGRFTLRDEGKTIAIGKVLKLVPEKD
Sequence of GSPT1 (Q96SW2 whole entry, the tested form may be a part): as the sequence (Q96SW2 whole entry) above
Sequence of GSPT1 (Q16531 whole entry partner, the tested form may be a part): as the sequence (Q16531 whole entry partner, the tested form may be a part) above
How it was run: as §1

[1] = compound concentration 2.00E−05
[2] = compound concentration 2.00E−06
[3] = compound concentration 2.00E−07
[4] = compound concentration 6.6667E−05
[5] = compound concentration 6.6667E−06
[6] = compound concentration 6.6667E−07 (667 nM)

| Structure (SMILES) | IKZF2 GFP/RFP Relative Abundance (IKZF2; [1]) | IKZF2 GFP/RFP Relative Abundance (IKZF2; [2]) | IKZF2 GFP/RFP Relative Abundance (IKZF2; [3]) | TR-FRET-IKZF2 (Normalized to CC-885) (CRBN and Helios (IKZF2); [4]) | TR-FRET-IKZF2 (Normalized to CC-885) (CRBN and Helios (IKZF2); [5]) | TR-FRET-IKZF2 (Normalized to CC-885) (CRBN and Helios (IKZF2); [6]) | SALL4 ZNF1-2 GFP/RFP Relative Abundance (SALL4 ZNF1-2; [1]) | SALL4 ZNF1-2 GFP/RFP Relative Abundance (SALL4 ZNF1-2; [2]) | SALL4 ZNF1-2 GFP/RFP Relative Abundance (SALL4 ZNF1-2; [3]) | IKZF1 GFP/RFP Relative Abundance (IKZF1; [1]) | IKZF1 GFP/RFP Relative Abundance (IKZF1; [2]) | IKZF1 GFP/RFP Relative Abundance (IKZF1; [3]) | GSPT1 GFP/RFP Relative Abundance (GSPT1; [1]) | GSPT1 GFP/RFP Relative Abundance (GSPT1; [2]) | GSPT1 GFP/RFP Relative Abundance (GSPT1; [3]) |
| --- | --- | --- | --- | --- | --- | --- | --- | --- | --- | --- | --- | --- | --- | --- | --- |
| CCOC(=O)c1cccc(NC2=CC(=O)N(C3CCC(=O)NC3=O)C2=O)c1 (stereo not drawn) [Compound 30, Ethyl 3-((1-(2,6-dioxopiperidin-3-yl)-2,5-dioxo-2,5-dihydro-1H-pyrrol-3-yl)amino)benzoate] | 0.916 | 0.928 | 0.979 | 0.386 | 0.324 | 0.228 | 0.815 | 0.786 | 0.896 | 0.388 | 0.437 | 0.631 | 1.100 | 1.129 | 1.192 |
| COC(=O)CN(C)C1=CC(=O)N(C2CCC(=O)NC2=O)C1=O (stereo not drawn) [Compound 15, Methyl N-(1-(2,6-dioxopiperidin-3-yl)-2,5-dioxo-2,5-dihydro-1H-pyrrol-3-yl)-N-methylglycinate] | 1.024 | 1.036 | 1.028 | 0.050 | 0.039 | 0.025 | 0.912 | 0.910 | 1.047 | 1.041 | 1.032 | 0.996 | 1.009 | 1.036 | 1.043 |
| Cc1ccc(NC(=O)NCCNC2=CC(=O)N(C3CCC(=O)NC3=O)C2=O)cc1Cl (stereo not drawn) [Compound 41, 1-(3-chloro-4-methylphenyl)-3-(2-((1-(2,6-dioxopiperidin-3-yl)-2,5-dioxo-2,5-dihydro-1H-pyrrol-3-yl)amino)ethyl)urea] | 0.969 | 1.027 | 1.040 | 0.170 | 0.126 | 0.104 | 1.020 | 0.994 | 1.004 | 0.638 | 0.909 | 1.003 | 0.038 | 0.062 | 0.077 |
| O=C1CCC(N2C(=O)C=C(Nc3ccccc3)C2=O)C(=O)N1 (stereo not drawn) [Compound 2, 3-(2,5-dioxo-3-(phenylamino)-2,5-dihydro-1H-pyrrol-1-yl)piperidine-2,6-dione] | 0.878 | 0.920 | 0.864 | 0.386 | 0.306 | 0.286 | 0.724 | 0.762 | 0.774 | 0.143 | 0.143 | 0.147 | 0.763 | 0.903 | 0.930 |
| CN(C)C(=O)Cc1ccc(NC2=CC(=O)N(C3CCC(=O)NC3=O)C2=O)cc1 (stereo not drawn) [Compound 36, 2-(4-((1-(2,6-dioxopiperidin-3-yl)-2,5-dioxo-2,5-dihydro-1H-pyrrol-3-yl)amino)phenyl)-N,N-dimethylacetamide] | 0.943 | 1.027 | 1.049 | 0.183 | 0.148 | 0.115 | 1.000 | 1.033 | 0.974 | 0.687 | 0.796 | 0.860 | 1.112 | 1.009 | 1.006 |
| CN(C)C(=O)Cc1cccc(NC2=CC(=O)N(C3CCC(=O)NC3=O)C2=O)c1 (stereo not drawn) [Compound 35, 2-(3-((1-(2,6-dioxopiperidin-3-yl)-2,5-dioxo-2,5-dihydro-1H-pyrrol-3-yl)amino)phenyl)-N,N-dimethylacetamide] | 0.667 | 0.709 | 0.806 | 0.520 | 0.447 | 0.402 | 0.928 | 0.903 | 0.888 | 0.154 | 0.181 | 0.182 | 0.975 | 1.074 | 0.938 |
| Cc1ccc(NC2=CC(=O)N(C3CCC(=O)NC3=O)C2=O)cc1C#N (stereo not drawn) [Compound 5, 5-((1-(2,6-dioxopiperidin-3-yl)-2,5-dioxo-2,5-dihydro-1H-pyrrol-3-yl)amino)-2-methylbenzonitrile] | 0.930 | 1.000 | 1.020 | 0.376 | 0.296 | 0.187 | 1.008 | 0.946 | 0.992 | 0.395 | 0.478 | 0.650 | 0.714 | 0.843 | 1.050 |
| COC(=O)c1n[nH]c(NC2=CC(=O)N(C3CCC(=O)NC3=O)C2=O)n1 (stereo not drawn) [Compound 20, Methyl 5-((1-(2,6-dioxopiperidin-3-yl)-2,5-dioxo-2,5-dihydro-1H-pyrrol-3-yl)amino)-1H-1,2,4-triazole-3-carboxylate] | 0.952 | 0.987 | 1.025 | 0.050 | 0.017 | 0.014 | 0.894 | 0.908 | 0.892 | 0.721 | 0.895 | 0.342 | 0.901 | 1.036 | 1.069 |

Source: patent US12227488B2, “Small molecule degraders of Helios and methods of use” (DANA-FARBER CANCER INSTITUTE, INC., priority 2018, dated 2025)
